Data reported in patent publication US20240261302A1, “METHODS OF TREATING NEURODEGENERATIVE DISEASES OR CONDITIONS” (FloraScience Inc., priority 2023, published 2024).

Key:
[1] = tested on: HT22 cells; experiment: Ferroptosis Assay (RSL3-induced cell death, MTT); format: cell-based, mouse; conditions: Mus musculus, HT-22; HT22 cells, 1 hr pretreatment, 50 nM RSL3, 16 hr, MTT; read-out: Observed EC50 RSL3
Experimental: Ferroptosis Assay: HT22 cells were seeded at 3,000 cells/well in 96-well tissue culture plates in DMEM plus 10% FBS and 1% antibiotics. After 24 hr of plating, the cells were pretreated with different concentrations of test compounds or a vehicle control for 1 hr followed by coincubation with 50 nM RSL3 to induce the cell death cascade. After 16 hr of treatment, cell viability was measured by the MTT assay. Optical absorbance was measured at 570 nm on a SpectraMax M5 microplate reader. Samples were analyzed in eight to sixteen wells per independent experiment (n=8-16). Results were presented as the percentage of the controls with vehicle alone.

[2] = tested on: HT22 cells; experiment: Oxytosis/ferroptosis assay with erastin (Table 2); format: cell-based; conditions: Mus musculus, HT-22; erastin as inducer; method not given; read-out: Observed EC50 erastin

Row | SMILES | EC50 [1] [nM] | EC50 [2] [µM]
1 | CCCCCc1cc(OC)c2c(c1)OC(C)(C)c1ccc(C)cc1-2 [CBN-OMe, 1-methoxy-6,6,9-trimethyl-3-pentyl-benzo[c]chromene] | > 10000 | > 10
2 | CCCCCc1cc2c(c(O)c1C(=O)O)-c1cc(C)ccc1C(C)(C)O2 [CBNA, 1-hydroxy-6,6,9-trimethyl-3-pentyl-benzo[c]chromene-2-carboxylic acid] | > 10000 | > 10
3 | C=C(C)c1ccc(C)cc1-c1c(O)cc(CCCCC)cc1O [CBND, 2,6-dihydroxy-4-pentyl-2′-isopropenyl-5′-methyl-1,1′-biphenyl] | 7700 | 15.4
4 | CCCc1cc(OC(C)=O)c2c(c1)OC(C)(C)c1ccc(C)cc1-2 [CBNV-OAc, 6,6,9-trimethyl-3-propyl-6H-benzo[c]chromen-1-yl acetate] | 1600 | 4
5 | CCCCCc1cc2c3c(c1)OC(C)(C)C1CCC(C)(CC31)O2 (stereo not shown) [CBT, 1,5,5-trimethyl-9-pentyl-6,15-dioxa-tetracyclo[9.3.1.0^4,13.0^7,12]-pentadeca-7(12),8,10-triene] | > 10000 | > 10
6 | CCCCCc1cc(O)c2c(c1)OC1(C)CCC(=C(C)C)C2C1 (stereo not shown) [D4(8)-iso-THC, 3,4,5,6-tetrahydro-2-methyl-5-(1-methylethylidene)-9-pentyl-2,6-methano-2H-1-benzoxocin-7-ol] | 340 | 1.5
7 | CCCCCc1cc(O)c2c(c1)OC(C)(C)C1=C2CC(C)CC1 (stereo not shown) [D6a,10a-THC, 6,6,9-trimethyl-3-pentyl-7,8,9,10-tetrahydro-6H-benzo[c]chromen-1-ol] | 700 | 1.8
8 | C=C(C)C1CCC2(C)CC1c1c(O)cc(CCCCC)cc1O2 (stereo not shown) [D8(9)-iso-THC, 3,4,5,6-tetrahydro-2-methyl-5-(1-methylethenyl)-9-pentyl-2,6-methano-2H-1-benzoxocin-7-ol] | 330 | 2.1
9 | CCCCCc1cc(O)c2c(c1)O[C@@H]1CCC(C)=C[C@]21C(C)C [D8(9)-iso-THCBF, (5aR,9aR)-9a-isopropyl-8-methyl-3-pentyl-5a,6,7,9a-tetra-hydrodibenzo[b,d]furan-1-ol] | 1400 | 5.1
10 | CCCCCc1cc(O)c2c(c1)OC(C)(C)C1CC=C(C)CC21 (stereo not shown) [D8-THC, 6,6,9-trimethyl-3-pentyl-6a,7,10,10a-tetrahydro-6H-benzo[c]chromen-1-ol] | 800 | 2.6
11 | CCCCCc1cc(O)c2c(c1)OC(C)(C)C1CCC(C)=CC21 (stereo not shown) [D9-THC, 6,6,9-trimethyl-3-pentyl-6a,7,8,10a-tetrahydro-6H-benzo[c]chromen-1-ol] | 4100 | 9.4
12 | CCCCCc1cc(O)c2c(c1)OC(C)(C)C1CCC(C)C=C21 (stereo not shown) [D10-THC, 6,6,9-trimethyl-3-pentyl-6a,7,8,9-tetrahydro-6H-benzo[c]chromen-1-ol] | 130 | 0.62
13 | CCCCCc1cc(O)c([C@H]2C=C(C)CC[C@@H]2C(C)C)c(O)c1 [H2CBD, 2-[(1R,6R)-6-Isopropyl-3-methylcyclohex-2-en-1-yl]-5-pentylbenzene-1,3-diol] | 1100 | 4.8
14 | CCCCCc1cc(O)c2c(c1)O[C@H]1[C@@H]2[C@H](C(C)C)CC[C@]1(C)O [H2CBE, (5aS,6S,9S,9aR)-9-isopropyl-6-methyl-3-pentyl-5a,6,7,8,9,9a-hexahydrodi-benzo[b,d]furan-1,6-diol] | 3500 | 9.2
15 | CCCCCc1cc(O)c(-c2cc(C)ccc2C(C)C)c(O)c1 [H2CBND, 2,6-dihydroxy-4-pentyl-2′-isopropyl-5′-methyl-1,1′-biphenyl] | 2400 | 5.7
16 | CCCCCc1cc(O)c([C@H]2CC(C)CC[C@@H]2C(C)C)c(O)c1 (stereo partly drawn) [H4CBD, 2-[(1S,6R)-6-Isopropyl-3-methylcyclohexyl]-5-pentylbenzene-1,3-diol] | 400 | 0.3
17 | CCCCCc1cc(O)c(CCC(C)CCCC(C)C)c(O)c1 (stereo not shown) [H4CBG, 2-(3,7-dimethyloctyl)-5-pentylbenzene-1,3-diol] | 400 | 0.7
18 | CCCCCc1cc(O)c2c(c1)OC(C)(C)C1CCC(C)CC21 (stereo not shown) [HHC, 6,6,9-trimethyl-3-pentyl-6a,7,8,9,10,10a-hexahydro-6H-benzo[c]chromen-1-ol] | 300 | 0.5
19 | CCCCCc1cc2c(c(O)c1C(=O)O)[C@@H]1C=C(C)CC[C@H]1C(C)(C)O2 [THCA, (6aR,10aR)-1-Hydroxy-6,6,9-trimethyl-3-pentyl-6a,7,8,10a-tetrahydro-6H-benzo[c]chromene-2-carboxylic acid] | > 10000 | > 10
20 | CCCc1cc(O)c2c(c1)OC(C)(C)C1CCC(C)=CC21 (stereo not shown) [THCV, 6,6,9-Trimethyl-3-propyl-6a,7,8,10a-tetrahydro-6H-benzo[c]chromen-1-ol] | 780 | 3.4
